Measurements reported in patent US20240148747A1, “SMALL MOLECULE ACTIVATORS OF YAP TRANSCRIPTIONAL ACTIVITY FOR REGENERATIVE ORGAN REPAIR” (THE SCRIPPS RESEARCH INSTITUTE, priority 2021, published 2024).
pEC50, pIC50: −log10 of the molar value. Like-named read-outs stand apart in the source and are kept apart here. Values belong to the molecule of their own block, whether it stands above or below them.

Tests used:
[1] = tested on: YAP; assay: TEAD-LUC activation assay (293A-TEAD-LUC reporter); type: cell-based; conditions: Homo sapiens
Text: More specifically, we used a 293A cell line harboring a stably integrated cassette containing 8 copies of the TEAD binding element upstream of luciferase (8xGTII-LUC). These cells retain responsiveness to contact inhibition-induced decreases in YAP transcriptional output.^6 The TEAD-responsive reporter assay (called 293A-TEAD-LUC throughout) was adapted to 1536-well format and then used to screen a library of ˜738k compounds for YAP-inducing activity.
Additional compounds of the present disclosure were subjected to the assay described above.

[2] = tested on: YAP-controlled transcripts (ANRKD1, CYR61, CTGF); assay: YAP-controlled transcript levels in 293A and other human cell lines; type: cell-based
[3] = tested on: YAP and TEAD proteins; assay: YAP-TEAD association and YAP nuclear localization in cells; type: cell-based
[4] = tested on: primary mouse epidermal keratinocytes; assay: Colony formation of primary mouse epidermal keratinocytes on dermal feeder layer; type: cell-based; conditions: 10-day growth period on dermal feeder layer
Text: We evaluated the proliferative response of primary cells and tissues to compound 13 treatment. […] In addition, compound 13 treatment allowed for the secondary re-plated expansion of Rhodamine B-stained keratinocytes and the time-dependent expression of YAP-driven transcript Cyr61 (FIGS. 2A-C).

[5] = tested on: epidermis of wildtype adult C57BL/6 mice; assay: Topical application to dorsal skin of C57BL/6 mice (epidermal remodeling); type: in vivo, mouse
Protocol: When applied topically to the dorsal skin of wildtype adult C57BL/6 mice over the course of ten days, compound 13 (10 uM) promoted a dramatic expansion of keratinocytes and K14-positive precursors as assessed by […] and anti-K14 histological staining at study end (FIG. 2D).
(§1) Compound 13 treatment, in an exemplary embodiment, promotes wound healing in human cells and induces a pro-proliferative effect on keratinocytes in the human skin surrogate species, the Yucatan mini pig. Accordingly, there was developed a gel-based formulation of compound 13, which allows for its stable room temperature storage and its topical delivery in high concentrations (up to about 1.5 weight percent).

[6] = tested on: Yucatan mini-pig skin; assay: Topical delivery in the Yucatan mini pig; type: in vivo
Text: as §1

[7] = tested on: human skin equivalents; assay: Wound healing in human skin equivalents (3 mm full thickness wound); type: cell-based
Text: as §1

[8] = Cytotoxicity in the TEAD-LUC activation assay; conditions: human
[9] = in vitro; conditions: human

pEC50 ([1]; Table 3, read-out: TEAD-LUC activation assay EC50): 6.00 | pEC50 ([1]; absence of serum, high cell density, read-out: EC50 of luciferase activity induction in 293A-TEAD-LUC cells): 5.80 | pEC50 ([1]; presence of serum, high cell density, read-out: EC50 of luciferase activity induction in 293A-TEAD-LUC cells): 5.82
Compound: O=C(NCCCc1nccs1)c1cc(-c2ccccc2)on1 [Compound 13, 5-phenyl-N-(3-(thiazol-2-yl)propyl)isoxazole-3-carboxamide]
levels of YAP-controlled transcripts (ANRKD1, CYR61, CTGF) ([2]; 293A cells and MCF-10A, HEK293T, H69, HaCaT): robustly increased | levels of YAP itself (YAP1) ([2]; 293A cells and other human cell lines): did not augment | association of YAP and TEAD proteins in cells [3]: dose-dependently promoted | nuclear localization of YAP ([3]; in response to increased cell density): induced the nuclear localization of YAP | colony forming potential [4]: ~10 fold | YAP-dependent transcripts Ctgf, Cyr61, and Ankrd1 ([5]; endpoint of the experiment): robust upregulation | epidermal thickening, gel-based formulation versus drug in acetone or DMSO ([5]; topical delivery, mouse): to a more significant degree | epidermal thickness ([5]; topical, ten days, 10 uM, wildtype mice): approximate doubling | KI-67 positive keratinocytes ([5]; topical, ten days, study end): substantially increased | epidermal hyperplasia, dermal hyperplasia, YAP-dependent gene expression [6]: promoted epidermal hyperplasia, dermal hyperplasia, and YAP-dependent gene expression | keratinocyte hyperplasia and wound contraction [7]: promoted the hyperplasia of keratinocytes and promoted wound contraction | pIC50 [8]: 4.86

Compound: CN1[C@H]2CC[C@@H]1CN(C(=O)c1cc(-c3ccccc3)on1)CC2 [Compound 129]
pEC50 ([1]; Table 4, read-out: TEAD-LUC activation assay EC50): < 4.70 | pIC50 [9]: < 4.70
